Test [1] concerns Mythimna separata. As to the kind of experiment: Antifeedant activity against third-instar larvae of Mythimna separata (Oriental armyworm) at 2 mg/ml applied on wheat leaf after 48 hr by non-choice leaf disk method relative to control. The test is classed as functional.
Test [2] concerns Mythimna separata. Description: Antifeedant activity against third-instar larvae of Mythimna separata (Oriental armyworm) at 2 mg/ml applied on wheat leaf after 24 hr by non-choice leaf disk method relative to control. The test is classed as functional.

For the compound `O=C(Oc1ccc2ccc(=O)oc2c1)c1ccc([N+](=O)[O-])cc1` [7-(4-NITROBENZOYLOXY)COUMARIN], the figures for the AFI in test [1] and in test [2] were 10.8% and -7.5%, respectively.
For `C/C=C(\C)C(=O)O[C@H]1C[C@@H](OC(C)=O)[C@@]2(C(=O)OC)CO[C@H]3[C@@H](O)[C@@](C)([C@]45O[C@@]4(C)[C@@H]4C[C@H]5O[C@@H]5OC=C[C@@]54O)[C@H]4[C@]1(CO[C@]4(O)C(=O)OC)[C@@H]32` [AZADIRACHTIN A], the AFI in test [1] stood at 43.8%; in test [2], 37.3%.
On to `CS(=O)(=O)Oc1ccc2ccc(=O)oc2c1` [7-METHANESULFONYLOXYCOUMARIN], for which the figures for the AFI in test [1] and in test [2] were 53.7% and 62.4%, respectively.
Consider `O=C(Oc1ccc2ccc(=O)oc2c1)c1ccc(Cl)cc1Cl` [7-(2,4-DICHLOROBENZOYLOXY)COUMARIN], for which the values for the AFI in test [1] and in test [2] were 18.3% and 6.3%, respectively.
On to `O=c1ccc2ccc(O)cc2o1` [UMBELLIFERONE], for which the AFI in test [1] is recorded as 17.3%; in test [2], 25.4%.
With `O=C(Oc1ccc2ccc(=O)oc2c1)c1ccc(Cl)nc1` [7-(6-CHLORONICOTINOYLOXY)COUMARIN], the AFI in test [1] is reported as 37.9%; in test [2], 45.3%.
In the same order, the values of `O=C(Oc1ccc2ccc(=O)oc2c1)c1ccc(Cl)cc1` [7-(4-CHLOROBENZOYLOXY)COUMARIN] are 17.5% and 9.2%.
In the same order, the values of `C=C(C)[C@H]1[C@H]2OC(=O)[C@@H]1[C@@]1(O)[C@H]3O[C@H]3[C@]3(CO3)[C@]1(C)[C@@H]2O` [TUTIN] are 31.8% and 22.7%.
For `C=C1CC[C@@H]2[C@](C)(CO)[C@H](O)CC[C@@]2(C)[C@@H]1C/C=C1/C(=O)OC[C@H]1O` [ANDROGRAPHOLIDE], in that order: 9.6% and 26.7%.
In the case of `O=C(Oc1ccc2ccc(=O)oc2c1)c1cc([N+](=O)[O-])cc([N+](=O)[O-])c1` [7-(3,5-DINITROBENZOYLOXY)COUMARIN], the AFI in test [1] stood at 49.1%; in test [2], 46.7%.
`COc1ccc(C(=O)Oc2ccc3ccc(=O)oc3c2)cc1` [7-(4-METHOXYBENZOYLOXY)COUMARIN]: the AFI is on record as 35.4% in test [1] and 32.3% in test [2].

For the origin of these results see ChEMBL document CHEMBL3044683, “Antifeedant activities of tutin and 7-hydroxycoumarin acylation derivatives against Mythimna separata” (2012).
